Test results reported in US6812255B2, “Use of aloe-emodin in the treatment of neuroectodermal tumors” (Universita Degli Studi Di Padova, priority 2002, dated 2004).

How the values were obtained:
[1] = system: neuroblastoma (IMR-32, IMR-5, AF8, SJ-N-KP); experiment: In vitro cytotoxicity assay, neuroblastoma cell lines; type: cell-based; details: Homo sapiens, 72 hours exposure, 0 to 100 μM, read-out: ED50 (half-maximal effective dose), cytotoxicity
Text: (§2) tumors of neuroectodermic origin: neuroblastoma (IMR-32, IMR-5, AF8, SJ-N-KP), pPNET (TC32), Ewing's sarcoma (TC106), melanoma (Mel 23);

Ewing's sarcoma (TC106) = experiment: In vitro cytotoxicity assay, Ewing's sarcoma cells; type: cell-based; details: Homo sapiens, 72 hours exposure, 0 to 100 μM, read-out: ED50 (half-maximal effective dose), cytotoxicity
Text: as §2

[2] = In vitro cytotoxicity assay, normal fibroblasts; type: cell-based; details: human, normal lung fibroblasts (MRC5), 72 hours exposure, 0 to 100 μM, read-out: ED50 (half-maximal effective dose), cytotoxicity
Text: normal cells: human lung fibroblasts (MRC5).

[3] = system: acute lymphocytic leukemia lines (CEM, CEM VBL); experiment: In vitro cytotoxicity assay, leukemia lines; type: cell-based; details: Homo sapiens, 72 hours exposure, 0 to 100 μM, read-out: ED50 (half-maximal effective dose), cytotoxicity
Text: tumors of different origin: T-cell leukemia (CEM) and T-cell leukemia vinblastine-resistant (CEM VBL), colon adenocarcinoma (LoVo 109) and colon adenocarcinoma doxorubicin-resistant (LoVo DX), cervix epithelioid carcinoma (HeLa);

[4] = system: hemopoietic progenitors cells from bone marrow of healthy donors; experiment: Clonogenic test, CFU-GM from bone marrow; type: cell-based; details: Homo sapiens, 336 h, methyl cellulose, 1-100 μM, 14 days, read-out: ED50 for the growth of CFU-GM colonies
Procedure: (§1) Clonogenic tests have also been carried out on hemopoietic progenitors cells, obtained from bone marrow (BM ? ) of healthy donors and from cord blood (CB □), and on neuroblastoma cells (SJ-N-KP ▪). The cell have been grown in methyl cellulose with scalar doses of AE in concentrations between 1 and 100 μM for 14 days.

[5] = system: hemopoietic progenitors cells from cord blood; experiment: Clonogenic test, CFU-GM from cord blood; type: cell-based; details: Homo sapiens, 336 h, methyl cellulose, 1-100 μM, 14 days, read-out: ED50 for the growth of CFU-GM colonies
Procedure: as §1

[6] = Acute and chronic toxicity in Swiss mice; type: in vivo; details: i.p.
Procedure: In the first case assays on acute and chronic toxicity are carried out on Swiss mice (males aged 8-10 weeks) to show possible effects of general toxicity due to AE on weight, neurological and intestinal functions, and hematological parameters. The animals were treated with high doses by intraperitoneal route, between 30 mg/Kg/die and 50 mg/Kg/die, in one administration and with low doses, between 1 mg/Kg/die and 10 mg/Kg/die, for repeated dosages.
The animals were monitored to check possible neurological damages by means of periodically repeated behavioral tests, to check hematic toxicity by means of weekly hemochrome analyses, and to check intestinal toxicity by means of daily faeces analyses. Moreover, the animals have also been weighed twice a week during the whole test. At the end of the tests the animals have been killed and the autopsy has been conducted.

[7] = system: neuroectodermal tumor cells

| SMILES | EC50 [1] [µM] | EC50 (Ewing's sarcoma (TC106)) [µM] | EC50 at 72 h [2] [µM] | EC50 [3] [µM] | EC50 [4] [µM] | EC50 [5] [µM] | general toxicity (weight, neurological, intestinal, hematological) ([6]; 30-50 mg/Kg/die single or 1-10 mg/Kg/die repeated) | autopsy findings ([6]; at the end of the tests) | cytotoxic effect [7] |
| --- | --- | --- | --- | --- | --- | --- | --- | --- | --- |
| O=C1c2cccc(O)c2C(=O)c2c(O)cc(CO)cc21 [AE, 1,8-dihydroxy-3-hydroxymethyl-9.10-anthracenedione] | 1 | 13 | 40 | 100 | 80 | 120 | No toxicity | not shown any damage to the main organs |  |
| O=C1c2c(O)cccc2C(C2O[C@H](CO)[C@@H](O)[C@H](O)[C@H]2O)c2cc(CO)cc(O)c21 (stereo partly drawn) [glycosylated form of AE, 10-1,5anhydroglucosyl-1,8-dihydroxy-3-hydroxymethyl-9-anthrone] |  |  |  |  |  |  |  |  | no cytotoxic effect |
